Data from ChEMBL document CHEMBL5608163, “Structure modification of anoplin for fighting resistant bacteria” (Eur J Med Chem, 2024).
≈ marks a conversion by molar mass, not a printed value. Numbered stars: 1 amine (or outer) side, 2 acyl side, 3 side chain; on linkers, the order of the positions; unused ones are H or OH. Square brackets hold non-standard residues; d marks the D form. Peptide text beside a SMILES is read from it. N(1-naphthylmethyl)Gly = O=C(O)CNCc1cccc2ccccc12; X3 = O=C(CN(CC(c1ccccc1)c1ccccc1)[*:1])[*:2]; NCyclohexylmethylGly = O=C(O)CNCC1CCCCC1; Nleu = CC(C)CNCC(=O)O; βAla = NCCC(=O)O

Experiments:
Escherichia coli [1] = assay: Antibacterial activity against Escherichia coli ATCC 25922 assessed as reduction in bacterial growth measured after 24 hrs by Mueller-Hinton broth based two-fold serial dilution method; type: functional
Staphylococcus aureus [2] = assay: Antibacterial activity against Staphylococcus aureus ATCC 25923 assessed as reduction in bacterial growth measured after 24 hrs by Mueller-Hinton broth based two-fold serial dilution method; type: functional
Erythrocyte [3] = assay: Hemolytic activity in mouse RBC; type: toxicity, cell-based
Staphylococcus aureus [4] = assay: Antimicrobial activity against Staphylococcus aureus assessed as reduction in microbial growth by broth microdilution method; type: functional
Escherichia coli [5] = assay: Antimicrobial activity against Escherichia coli assessed as reduction in microbial growth by broth micro-dilution method; type: functional
Escherichia coli [6] = assay: Antibacterial activity against Escherichia coli ATCC 25922 assessed as reduction in bacterial cell growth incubated for 18 hrs by two fold serial microdilution method; type: functional
Staphylococcus aureus [7] = assay: Antibacterial activity against Staphylococcus aureus ATCC 25923 assessed as reduction in bacterial cell growth incubated for 18 hrs by two fold serial microdilution method; type: functional
Acinetobacter baumannii = assay: Antibacterial activity against Acinetobacter baumannii ATCC 19606 assessed as inhibition in bacterial growth incubated for 20 to 24 hrs by CLSI based broth microdilution method; type: functional; details: time 20-24 hrs
Erythrocyte [8] = assay: Hemolytic activity in mouse Red blood cells incubated for 1 hr; type: toxicity, cell-based
Klebsiella pneumoniae = assay: Antibacterial activity against Klebsiella pneumoniae ATCC 700603 assessed as reduction in bacterial cell growth incubated for 18 hrs by two fold serial microdilution method; type: functional
[9] = test system: Staphylococcus epidermidis; assay: Antibacterial activity against Staphylococcus epidermidis ATCC 12228 assessed as reduction in bacterial cell growth incubated for 18 hrs by two fold serial microdilution method; type: functional
Pseudomonas aeruginosa = assay: Antibacterial activity against Pseudomonas aeruginosa ATCC 27853 assessed as reduction in bacterial cell growth incubated for 18 hrs by two fold serial microdilution method; type: functional

Structure (SMILES)	MIC (Escherichia coli [1]) [µM]	MIC (Staphylococcus aureus [2]) [µM]	MIC (Staphylococcus aureus [4]) [µM]	MIC (Escherichia coli [5]) [µM]	HC10 (Erythrocyte [3]) [µM]	further results
CC[C@H](C)[C@H](NC(=O)[C@H](CCCNC(=N)N)NC(=O)[C@H](CCCCN)NC(=O)[C@H](CC(C)C)NC(=O)[C@H](CC(C)C)NC(=O)CNCC1CCCCC1)C(=O)N[C@@H](CCCCN)C(=O)N[C@H](C(=O)N[C@@H](CC(C)C)C(=O)N[C@@H](CC(C)C)C(N)=O)[C@@H](C)O (H-[NCyclohexylmethylGly]LLKRIKTLL-NH2)			50	25	> 50	
CC(C)C[C@H](NC(=O)CN)C(=O)N[C@@H](CC(C)C)C(=O)N[C@@H](CCCCN)C(=O)N[C@@H](CCCNC(=N)N)C(N)=O (H-GLLKR-NH2)	53.2 (≈ 31.1 µg/mL)	> 53.2				
CC[C@H](C)[C@H](NC(=O)[C@H](CCCNC(=N)N)NC(=O)[C@H](CCCCN)NC(=O)[C@H](CC(C)C)NC(=O)[C@@H](N)CC(C)C)C(=O)N[C@@H](CCCCN)C(=O)N[C@H](C(=O)N[C@@H](CC(C)C)C(=O)N[C@@H](CC(C)C)C(N)=O)[C@@H](C)O (H-LLKRIKTLL-NH2)	54.7 (≈ 60 µg/mL)	> 54.7				
CC[C@H](C)[C@H](NC(=O)[C@H](CCCNC(=N)N)NC(=O)[C@H](CCCCN)NC(=O)[C@H](CC(C)C)NC(=O)[C@H](CC(C)C)NC(=O)CN)C(=O)N[C@@H](CCCCN)C(N)=O (H-GLLKRIK-NH2)	33.9 (≈ 28 µg/mL)	> 33.9				
CC(C)C[C@H](NC(=O)[C@H](CC(C)C)NC(=O)[C@@H](NC(=O)[C@H](CCCCN)NC(=O)CCNC(=O)[C@H](CCCNC(=N)N)NC(=O)[C@H](CCCCN)NC(=O)[C@H](CC(C)C)NC(=O)[C@H](CC(C)C)NC(=O)CN)[C@@H](C)O)C(N)=O (H-GLLKR[βAla]KTLL-NH2)						MIC (Escherichia coli [6]): > 128 µM; MIC (Staphylococcus aureus [7]): > 128 µM; MIC (Acinetobacter baumannii): > 128 µM; HC10 (Erythrocyte [8]): > 256 µM; MIC (Klebsiella pneumoniae): > 128 µM; MIC [9]: > 128 µM; MIC (Pseudomonas aeruginosa): > 128 µM
CC[C@H](C)[C@H](NC(=O)[C@H](CCCNC(=N)N)NC(=O)[C@H](CCCCN)NC(=O)[C@H](CC(C)C)NC(=O)[C@H](CC(C)C)NC(=O)CNCc1cccc2ccccc12)C(=O)N[C@@H](CCCCN)C(=O)N[C@H](C(=O)N[C@@H](CC(C)C)C(=O)N[C@@H](CC(C)C)C(N)=O)[C@@H](C)O (H-[N(1-naphthylmethyl)Gly]LLKRIKTLL-NH2)			25	12.5	> 50	

Second part, led by results:

MIC (Escherichia coli [1]) [µM]	MIC (Staphylococcus aureus [2]) [µM]	MIC (Staphylococcus aureus [4]) [µM]	MIC (Escherichia coli [5]) [µM]	Structure (SMILES)	HC10 (Erythrocyte [3]) [µM]	further results
41.4 (≈ 47.8 µg/mL)	> 41.4			CC[C@H](C)[C@H](NC(=O)[C@H](CCCNC(=N)N)NC(=O)[C@H](CCCCN)NC(=O)[C@H](CC(C)C)NC(=O)[C@H](CC(C)C)NC(=O)CN)C(=O)N[C@@H](CCCCN)C(=O)N[C@H](C(=O)N[C@@H](CC(C)C)C(=O)N[C@@H](CC(C)C)C(=O)O)[C@@H](C)O (H-GLLKRIKTLL-OH)		
70.2 (≈ 61.1 µg/mL)	> 70.2			CC[C@H](C)[C@H](NC(=O)[C@H](CCCNC(=N)N)NC(=O)[C@@H](N)CCCCN)C(=O)N[C@@H](CCCCN)C(=O)N[C@H](C(=O)N[C@@H](CC(C)C)C(=O)N[C@@H](CC(C)C)C(N)=O)[C@@H](C)O (H-KRIKTLL-NH2)		
54.6 (≈ 38.1 µg/mL)	> 54.6			CC[C@H](C)[C@H](NC(=O)[C@H](CCCNC(=N)N)NC(=O)[C@H](CCCCN)NC(=O)[C@H](CC(C)C)NC(=O)[C@H](CC(C)C)NC(=O)CN)C(N)=O (H-GLLKRI-NH2)		
		25	12.5	CC[C@H](C)[C@H](NC(=O)[C@H](CCCNC(=N)N)NC(=O)[C@H](CCCCN)NC(=O)[C@H](CC(C)C)NC(=O)[C@H](CC(C)C)NC(=O)CNCC(c1ccccc1)c1ccccc1)C(=O)N[C@@H](CCCCN)C(=O)N[C@H](C(=O)N[C@@H](CC(C)C)C(=O)N[C@@H](CC(C)C)C(N)=O)[C@@H](C)O (H-[X3]LLKRIKTLL-NH2)	> 50	
		> 100	> 100	CC[C@H](C)[C@H](NC(=O)[C@H](CCCNC(=N)N)NC(=O)[C@H](CCCCN)NC(=O)[C@H](CC(C)C)NC(=O)[C@H](CC(C)C)NC(=O)CNCC(C)C)C(=O)N[C@@H](CCCCN)C(=O)N[C@H](C(=O)N[C@@H](CC(C)C)C(=O)N[C@@H](CC(C)C)C(N)=O)[C@@H](C)O (H-[Nleu]LLKRIKTLL-NH2)	> 50	
